Laboratory results from paper PMC12589562, “Structural and functional characterization of TgGSK3, a druggable kinase in Toxoplasma gondii” (Nature Communications, 2025).

Key:
TgGSK3 = biological target: T1, TgGSK3 (Toxoplasma gondii, UniProt A0A125YY75); assay: X-ray co-crystal structure ([…] Å and […] Å); microscale thermophoresis; Kinase-Glo inhibition (IC50 […]); assay type: binding
T1 construct: gene TGGT1_265330; kinase domain, aa 46-385 (orthorhombic crystal) and aa 20/21-385 (monoclinic crystal)

[1] = biological target: recombinant TgGSK3 (amino acids 21-385), C-terminal 6His (Toxoplasma gondii); assay: crystal structure; monoclinic crystal at 3.0 A of TgGSK3 (aa 20 to 385) with LY2090314; hanging drops in 5% MPD, 9% PEG 6000, 0.1 M Tris pH 7.5; crystals grew after several weeks; four subunits in the asymmetric unit

Row | Molecule | Kd (TgGSK3) [nM] | stoichiometry N [1]
1 | O=C1NC(=O)C(c2cnc3ccccn23)=C1c1cn2c3c(cc(F)cc13)CN(C(=O)N1CCCCC1)CC2 [compound 209, LY2090314] | 34 | 
2 | recombinant TgGSK3 (amino acids 21-385), C-terminal 6His (from UniProt A0A125YY75 21-385) (enzyme) |  | 2
